System: H. pylori
Assay: Antimicrobial activity test 6: oxethazaine in combination with an antibiotic (AMPC, CAM, RXM), checker board method
Assay type: cell-based, Helicobacter pylori
Design: key to growth of H. pylori: “−” indicates the inhibited growth of H. pylori (presence of antimicrobial activity); “+” indicates the growth of H. pylori (absence of antimicrobial activity)
Conditions: for growth of H. pylori: oxethazaine μg/ml: 100, 50, 25, 12.5, 6.25, 3.13, 0
Excerpt: The effect of combined use with amoxicillin (AMPC), clarithromycin (CAM) or roxithromycin (RXM) was examined in the same manner as in antimicrobial activity test 1, using the checker board method.

[1] = combined use with oxethazaine, out of 15 strains (AMPC), 21 strains (CAM), 22 strains (RXM)

CC[C@H]1OC(=O)[C@H](C)[C@@H](O[C@H]2C[C@@](C)(OC)[C@@H](O)[C@H](C)O2)[C@H](C)[C@@H](O[C@@H]2O[C@H](C)C[C@H](N(C)C)[C@H]2O)[C@](C)(O)C[C@@H](C)/C(=N\OCOCCOC)[C@H](C)[C@@H](O)[C@]1(C)O [roxithromycin]
+: growth of H. pylori (strain EH 12, RXM 0.05 μg/ml) | growth of H. pylori (strain EH 12, RXM 0.1 μg/ml) | growth of H. pylori (strain EH 13, RXM 0.05 μg/ml) | growth of H. pylori (strain EH 13, RXM 0.1 μg/ml) | growth of H. pylori (strain NCTC11637, RXM 0.05 μg/ml) | growth of H. pylori (strain NCTC11637, RXM 0.1 μg/ml) | growth of H. pylori (strain NCTC11639, RXM 0.05 μg/ml) | growth of H. pylori (strain NCTC11639, RXM 0.1 μg/ml) | growth of H. pylori (strain NCTC11639, RXM 0.2 μg/ml) | growth of H. pylori (strain NCTC11639, RXM 0.4 μg/ml)
−: growth of H. pylori (strain EH 12, RXM 0.2 μg/ml) | growth of H. pylori (strain EH 12, RXM 0.4 μg/ml) | growth of H. pylori (strain EH 12, RXM 0.8 μg/ml) | growth of H. pylori (strain EH 12, RXM 1.56 μg/ml) | growth of H. pylori (strain EH 12, RXM 3.13 μg/ml) | growth of H. pylori (strain EH 12, RXM 6.25 μg/ml) | growth of H. pylori (strain EH 12, RXM 12.5 μg/ml) | growth of H. pylori (strain EH 12, RXM 25 μg/ml) | growth of H. pylori (strain EH 12, RXM 50 μg/ml) | growth of H. pylori (strain EH 12, RXM 100 μg/ml) | growth of H. pylori (strain EH 13, RXM 0.2 μg/ml) | growth of H. pylori (strain EH 13, RXM 0.4 μg/ml) | growth of H. pylori (strain EH 13, RXM 0.8 μg/ml) | growth of H. pylori (strain EH 13, RXM 1.56 μg/ml) | growth of H. pylori (strain EH 13, RXM 3.13 μg/ml) | growth of H. pylori (strain EH 13, RXM 6.25 μg/ml) | growth of H. pylori (strain EH 13, RXM 12.5 μg/ml) | growth of H. pylori (strain EH 13, RXM 25 μg/ml) | growth of H. pylori (strain EH 13, RXM 50 μg/ml) | growth of H. pylori (strain EH 13, RXM 100 μg/ml) | growth of H. pylori (strain NCTC11637, RXM 0.2 μg/ml) | growth of H. pylori (strain NCTC11637, RXM 0.4 μg/ml) | growth of H. pylori (strain NCTC11637, RXM 0.8 μg/ml) | growth of H. pylori (strain NCTC11637, RXM 1.56 μg/ml) | growth of H. pylori (strain NCTC11637, RXM 3.13 μg/ml) | growth of H. pylori (strain NCTC11637, RXM 6.25 μg/ml) | growth of H. pylori (strain NCTC11637, RXM 12.5 μg/ml) | growth of H. pylori (strain NCTC11637, RXM 25 μg/ml) | growth of H. pylori (strain NCTC11637, RXM 50 μg/ml) | growth of H. pylori (strain NCTC11637, RXM 100 μg/ml) | growth of H. pylori (strain NCTC11639, RXM 0.8 μg/ml) | growth of H. pylori (strain NCTC11639, RXM 1.56 μg/ml) | growth of H. pylori (strain NCTC11639, RXM 3.13 μg/ml) | growth of H. pylori (strain NCTC11639, RXM 6.25 μg/ml) | growth of H. pylori (strain NCTC11639, RXM 12.5 μg/ml) | growth of H. pylori (strain NCTC11639, RXM 25 μg/ml) | growth of H. pylori (strain NCTC11639, RXM 50 μg/ml) | growth of H. pylori (strain NCTC11639, RXM 100 μg/ml)
19 strains/: additive effect, number of strains [1]
4 strains/: synergism, number of strains [1]
